For assay [1], the system named is black bean aphids (Aphis fabae). Kind of assay: Aphis fabae root-systemic test on field bean. In kind it is in vivo. Particulars: read-out: mortality among the aphids, by root-systemic action.
The test system is the same in assay [2]. Kind of assay: Aphis fabae dip test on field bean (plants and aphids dipped in preparation). The assay is classed as in vivo. The settings on record: read-out: mortality among the aphids.

Mortality data for two molecules are collected here from patent US20020032328A1, “Heterocyclic acylsulfimides, processes for their preparation, compositions comprising them and their use as pesticides” (priority 2000, published 2002).

As usually defined, the mortality is the percentage killed. As to `C/S(=N\C(=O)c1cnccc1C(F)(F)F)c1ccsc1` (stereo not shown) [Example 66], in assay [1], the mortality at 30 ppm is 90 to 100%. Further, the mortality at 300 ppm in assay [2] lay within 90 to 100%.
For the molecule `CS(=O)(=NC(=O)c1cnccc1C(F)(F)F)c1ccc(Oc2cccc(F)c2C#N)cc1` (stereo not shown) [Example 718], in assay [1], the mortality at 30 ppm fell in the range of 90 to 100%. Further, the mortality at 300 ppm in assay [2] fell in the range of 90 to 100%.
